Our source for the IC50 and inhibition in vivo values is patent publication US7625948B2, “Ester compound and medicinal use thereof” (Japan Tobacco Inc., priority 2002, dated 2009).

For assay [1], the target named is T1, Microsomal triglyceride transfer protein (MTP) from bovine liver (Bos taurus, UniProt P55156).
T1 construct: from tissue; host or cells: bovine liver
T1 sequence (P55156 12-887): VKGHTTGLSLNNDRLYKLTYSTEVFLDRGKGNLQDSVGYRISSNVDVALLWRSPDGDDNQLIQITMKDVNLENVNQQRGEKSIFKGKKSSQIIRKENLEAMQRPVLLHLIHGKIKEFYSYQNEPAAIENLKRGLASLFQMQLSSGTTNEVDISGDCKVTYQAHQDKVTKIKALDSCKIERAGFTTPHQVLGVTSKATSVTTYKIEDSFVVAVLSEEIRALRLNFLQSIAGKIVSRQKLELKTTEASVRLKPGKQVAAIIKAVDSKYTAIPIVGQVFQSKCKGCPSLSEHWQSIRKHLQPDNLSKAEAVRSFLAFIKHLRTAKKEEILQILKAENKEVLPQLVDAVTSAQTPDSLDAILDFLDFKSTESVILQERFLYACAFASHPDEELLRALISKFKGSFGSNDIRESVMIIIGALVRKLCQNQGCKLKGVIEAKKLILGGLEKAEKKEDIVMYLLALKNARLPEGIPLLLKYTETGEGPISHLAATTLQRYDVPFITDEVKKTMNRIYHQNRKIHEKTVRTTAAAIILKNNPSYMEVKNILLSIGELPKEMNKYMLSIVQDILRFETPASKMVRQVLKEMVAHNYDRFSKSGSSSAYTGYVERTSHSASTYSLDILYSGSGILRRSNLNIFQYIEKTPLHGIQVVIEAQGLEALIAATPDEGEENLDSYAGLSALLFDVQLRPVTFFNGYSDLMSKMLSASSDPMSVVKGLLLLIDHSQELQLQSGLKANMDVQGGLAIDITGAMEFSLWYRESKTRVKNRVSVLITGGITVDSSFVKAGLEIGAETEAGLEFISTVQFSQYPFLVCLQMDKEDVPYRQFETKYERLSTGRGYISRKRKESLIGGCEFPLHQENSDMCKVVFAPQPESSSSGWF
T1 sequence (P05307 21-510 partner): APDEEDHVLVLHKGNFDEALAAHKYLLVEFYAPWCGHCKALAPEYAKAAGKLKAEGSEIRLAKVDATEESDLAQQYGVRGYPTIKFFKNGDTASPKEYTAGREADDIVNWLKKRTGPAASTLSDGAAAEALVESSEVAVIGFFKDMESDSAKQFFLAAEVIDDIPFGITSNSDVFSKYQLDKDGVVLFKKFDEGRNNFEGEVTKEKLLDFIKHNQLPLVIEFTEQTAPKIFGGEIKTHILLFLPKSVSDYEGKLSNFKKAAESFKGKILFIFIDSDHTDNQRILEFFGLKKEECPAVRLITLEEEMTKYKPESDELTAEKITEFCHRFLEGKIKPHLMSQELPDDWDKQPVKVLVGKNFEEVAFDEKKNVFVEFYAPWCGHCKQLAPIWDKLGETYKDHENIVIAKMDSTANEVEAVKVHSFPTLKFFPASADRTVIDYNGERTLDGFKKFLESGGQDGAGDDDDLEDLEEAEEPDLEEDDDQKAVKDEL
Nature of the assay: Test Example 1: inhibition of interliposomal triglyceride (TG) transfer activity by MTP (also used for metabolites in Test Example 8). The format is biochemical. The following applies: MTP-mediated 14C-triolein transfer between liposomes, 37° C., one hour; read-out: Test Example 1 MTP inhibition IC50. The procedure, abridged:
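Partially purified bovine liver MTP (DEAE chromatography) incubated 1 h at 37 °C, pH 7.4, with ^14C-triolein-labelled donor SUVs and unlabelled acceptor SUVs plus compound in DMSO. Acceptor radioactivity, blank-corrected, gave % inhibition versus DMSO; IC50 derived. Metabolites tested likewise.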

A further assay has as its system Syrian hamsters. The experiment in a line: Test Example 3: olive oil-loading test (inhibition of fat absorption, plasma TG). It counts as in vivo. Conditions: Mesocricetus auratus, po, plasma TG 4 hours after olive oil, read-out: Test Example 3 Inhibition of fat absorption after olive oil-loading in Hamster Inhibition rate (%); for inhibition in vivo at 3 mg/kg: 3 mg/kg p.o.; for inhibition in vivo at 10 mg/kg: 10 mg/kg p.o. The procedure:
Syrian hamsters (9-11 weeks of age) under non-fasted conditions were used in the test. Blood was collected previously from orbital venous plexus, and a sample was suspended in 0.5% methyl cellulose (vehicle) and the suspension was forced to be administered orally to the hamsters at a dose of 0.3, 1, 3 or 10 mg/2 mL/kg. Only vehicle in the same volume was administered to the control group. Olive oil (2 mL/kg) was forced to be administered orally 30 minutes after the administration of the sample, and blood was collected from orbital venous plexus 4 hours later. Plasma was recovered from the blood, and the amount of triglyceride (TG) in the plasma was determined by automatic analyzer (Hitachi Co.). The data was expressed in terms of ΔTG(mg/dL)=the value at 4th hr minus the value before administration. Inhibition rate (%) was calculated from the data obtained on the basis of the following equation.
Inhibition rate (%)=100×(1 minus ΔTG of sample group/ΔTG of control group).

pIC50: −log10 of the molar value.

For `CCNC(=O)C(COC(=O)Cc1ccc(NC(=O)c2ccccc2-c2ccc(C(F)(F)F)cc2)cc1)(C(=O)NCC)c1ccccc1` [Example 1, 4-[(4′-Trifluoromethylbiphenyl-2-carbonyl)amino]phenyl-acetic acid 2,2-bisethylcarbamoyl-2-phenylethyl ester], the pIC50 – broadly, −log10 of the IC50, conventionally taken in molar units – in assay [1] is 9.22.

As for `CCOC(=O)C(COC(=O)Cc1ccc(OC(=O)c2ccccc2-c2ccc(C(F)(F)F)cc2)cc1)(C(=O)OCC)c1ccccc1` [Example 1-2, 2-Phenyl-2-{2-[4-(4′-trifluoromethylbiphenyl-2-carbonyloxy)phenyl]acetoxymethyl}malonic acid diethyl ester], the pIC50 in assay [1] is 7.38.

With `CCNC(=O)C(COC(=O)Cc1ccc(NC(=O)c2ccccc2-c2ccc(C(F)(F)F)cc2)c(CC)c1)(C(=O)NCC)c1ccccc1` [Example 1-5, {3-Ethyl-4-[(4′-trifluoromethylbiphenyl-2-carbonyl)amino]phenyl}acetic acid 2,2-bisethylcarbamoyl-2-phenylethyl ester], the inhibition in vivo at 3 mg/kg with Syrian hamsters is 59%. For the same compound, in assay [1], the pIC50 is 9.18.

`O=C(Cc1ccc(NC(=O)c2ccccc2-c2ccc(C(F)(F)F)cc2)cc1)OCC1(C(=O)NCC(F)(F)F)c2ccccc2-c2ccccc21` [Example 1-6]: in the assay on Syrian hamsters, the inhibition in vivo at 10 mg/kg amounted to 54%. Besides, the pIC50 in assay [1] is 8.92.

With `O=C(Cc1ccc(NC(=O)c2ccccc2-c2ccc(C(F)(F)F)cc2)cc1)OCC(C(=O)NCC(F)(F)F)(C(=O)NCC(F)(F)F)c1ccccc1` [Example 1-12], the pIC50 in assay [1] was 8.12.

Consider `COC(=O)C(COC(=O)Cc1ccc(NC(=O)c2ccccc2-c2ccc(C(F)(F)F)cc2)cc1)(C(=O)OC)c1ccccc1` [Example 1-13], for which the pIC50 in assay [1] is 8.24.

Take `CCCNC(=O)C(COC(=O)Cc1ccc(NC(=O)c2ccccc2-c2ccc(C(F)(F)F)cc2)cc1)(C(=O)NCCC)c1ccccc1` [Example 1-35]: the pIC50 in assay [1] is 9.00.

In the case of `CCNC(=O)C(COC(=O)Cc1ccc(NC(=O)c2ccccc2-c2ccc(C(F)(F)F)cc2)c(C(=O)N(C)C)c1)(C(=O)NCC)c1ccccc1` [Example 2, {3-Dimethylcarbamoyl-4-[(4′-trifluoromethylbiphenyl-2-carbonyl)amino]phenyl}acetic acid 2,2-bisethylcarbamoyl-2-phenylethyl ester], the inhibition in vivo at 10 mg/kg with Syrian hamsters was 95%. The pIC50 in assay [1] is 9.21.

With `CCCNC(=O)C(COC(=O)Cc1ccc(NC(=O)c2ccccc2-c2ccc(C(F)(F)F)cc2)c(C(=O)N(C)C)c1)(C(=O)NCCC)c1ccccc1` [Example 2-2], the inhibition in vivo at 10 mg/kg with Syrian hamsters was determined as 96%. In assay [1], the pIC50 is 8.85.

As to `CCNC(=O)C(COC(=O)Cc1ccc(NC(=O)c2ccccc2-c2ccc(C(F)(F)F)cc2)c(C(=O)NC)c1)(C(=O)NCC)c1ccccc1` [Example 2-3], the inhibition in vivo at 3 mg/kg with Syrian hamsters turned out to be 68%. Moreover, the pIC50 in assay [1] is 8.68.

Turning to `CCNC(=O)C(CCOC(=O)Cc1ccc(NC(=O)c2ccccc2-c2ccc(C(F)(F)F)cc2)c(C(=O)N(C)C)c1)(C(=O)NCC)c1ccccc1` [Example 2-4], the inhibition in vivo at 3 mg/kg with Syrian hamsters is 78%. In assay [1], the pIC50 is 9.03.

As for `CCOC(=O)C(COC(=O)Cc1ccc(NC(=O)c2ccccc2-c2ccc(C(F)(F)F)cc2)c(C(=O)N(C)C)c1)(C(=O)OCC)c1ccccc1` [Example 2-5], in the assay with Syrian hamsters, the inhibition in vivo at 3 mg/kg amounted to 70%. In assay [1], the pIC50 was 8.85.

On to `CCNC(=O)C(CCCOC(=O)Cc1ccc(NC(=O)c2ccccc2-c2ccc(C(F)(F)F)cc2)c(C(=O)N(C)C)c1)(C(=O)NCC)c1ccccc1` [Example 2-7], for which the inhibition in vivo at 3 mg/kg in the assay on Syrian hamsters is 58%. Further, the pIC50 in assay [1] was 8.96.

Turning to `CCOC(=O)C(COC(=O)Cc1ccc(NC(=O)c2ccccc2-c2ccc(C(F)(F)F)cc2)c(C(=O)N2CCCC2)c1)(C(=O)OCC)c1ccccc1` [Example 2-22], the inhibition in vivo at 3 mg/kg in the assay with Syrian hamsters stood at 61%. Moreover, the pIC50 in assay [1] was 8.85.

Turning to `COC(=O)C(COC(=O)Cc1ccc(NC(=O)c2ccccc2-c2ccc(C(F)(F)F)cc2)c(C(=O)N(C)C)c1)(C(=O)OC)c1ccccc1` [Example 2-39], the inhibition in vivo at 3 mg/kg in the assay on Syrian hamsters was found to be 68%. In addition, the pIC50 in assay [1] was 9.13.

On to `CCNC(=O)C(COC(=O)Cc1ccc(NC(=O)c2ccccc2-c2ccc(C(F)(F)F)cc2)c(OC)c1)(C(=O)NCC)c1ccccc1` [Example 3-3], for which, in the assay with Syrian hamsters, the inhibition in vivo at 10 mg/kg was 78%. The pIC50 in assay [1] is 9.40.

Consider `CCNC(=O)C(CCOC(=O)Cc1ccc(NC(=O)c2ccccc2-c2ccc(C(F)(F)F)cc2)c(OC)c1)(C(=O)NCC)c1ccccc1` [Example 3-6], for which, in the assay with Syrian hamsters, the inhibition in vivo at 3 mg/kg is 52%. The pIC50 in assay [1] is 8.30.

Take `CCNC(=O)C(CCOC(=O)Cc1ccc(NC(=O)c2ccccc2-c2ccc(C(F)(F)F)cc2)c(OCC)c1)(C(=O)NCC)c1ccccc1` [Example 3-8]: the inhibition in vivo at 3 mg/kg in the assay on Syrian hamsters is 60%. Also, the pIC50 in assay [1] was 8.43.

Regarding `CCNC(=O)C(COC(=O)Cc1ccc(NC(=O)c2ccccc2-c2ccc(C(F)(F)F)cc2)c(OC(C)C)c1)(C(=O)NCC)c1ccccc1` [Example 3-10], the inhibition in vivo at 3 mg/kg in the assay with Syrian hamsters worked out at 85%. For the same compound, the pIC50 in assay [1] was 8.57.
